How the values were obtained:
[1] = target: T1, CtermDelΔ7+Cleaved His-tag (Herbaspirillum sp. BH-1, UniProt A0A2N6JFX7); assay: ammonia release, Berthelot assay; type: biochemical; details: phosphate buffer, pH 8, 25 °C
T1 construct: gene trtA
Source text: ammonia release, Berthelot assay on CtermDelΔ7+Cleaved His-tag

[2] = target: T2, RhdBiuH (Rhodococcus sp. Mel, UniProt H8ZKV9, C169S); assay: X-ray crystal structure; type: binding; details: cocrystal with biuret; active site; inactive mutant
T2 construct: recombinant

[3] = target: T3, TrtA (Herbaspirillum sp. BH-1, UniProt A0A2N6JFX7); assay: inhibition of triuret hydrolysis; type: biochemical; details: likely competitive; Ki not determinable because biuret contains about 1 mol% triuret; inhibition only above 50 mM, where TrtA precipitates; tag state not stated
T3 construct: N-terminal 6xHis tag and thrombin site kept, pET28a, E. coli BL21(DE3), codon-optimized; subunit 24 kDa, homodimer
T3 sequence (A0A2N6JFX7 1-227): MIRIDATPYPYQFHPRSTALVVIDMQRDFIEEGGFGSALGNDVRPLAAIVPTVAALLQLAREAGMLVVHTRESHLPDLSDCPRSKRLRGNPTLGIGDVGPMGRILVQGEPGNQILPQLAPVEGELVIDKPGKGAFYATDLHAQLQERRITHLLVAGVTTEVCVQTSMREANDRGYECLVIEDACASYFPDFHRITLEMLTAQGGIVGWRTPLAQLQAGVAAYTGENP

T2 sequence (H8ZKV9 entry or part of it C169S): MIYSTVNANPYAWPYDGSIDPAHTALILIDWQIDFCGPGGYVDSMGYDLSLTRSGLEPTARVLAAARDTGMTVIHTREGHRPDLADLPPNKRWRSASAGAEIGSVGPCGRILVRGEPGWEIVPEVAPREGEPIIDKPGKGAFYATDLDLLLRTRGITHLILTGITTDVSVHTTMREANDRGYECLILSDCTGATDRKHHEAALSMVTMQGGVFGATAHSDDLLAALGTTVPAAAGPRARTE

Row | Compound | Km [1] | X-ray crystal structure [2] | inhibition of triuret hydrolysis [3]
1 | NC(=O)NC(=O)NC(N)=O [triuret] | 16 ± 2 µM | – | –
2 | NC(=O)NC(N)=O [biuret] | – | The cocrystal with biuret showed similar mode of binding to that of BiuH | Inhibition data suggests that biuret is a competitive inhibitor
